Laboratory results taken from patent US9981968B2, “Substituted pyrrolo[2,3-d]pyrimidines for the treatment of cancer and proliferative disorders” (Northwestern University, priority 2013, dated 2018).

Assays:
Type in all cases: cell-based, human
U937 cell lines = assay: Immunoblot of PARP cleavage and cleaved caspase 3; details: U937 cell lysates, FIG. 17
Method: FIG. 17. Immunoblot of cell lysates from U937 cell lines treated with Compounds 381, 383, 409 (as test compounds) and Compound 501 (as a negative control) as compared to 8-amino adenosine (8NH2-Ado) and 8-chloro adenosine (8Cl-Ado) (as positive controls). The impact of the compounds on proteins associated with cell death was assessed via performing an immunoblot. (See FIG. 17). PARP cleavage indicated activation of the caspase cascade and cell death by induction of apoptosis. Similarly detection of cleaved caspase 3 indicated activation of caspase activity and cell death by apoptosis. GAPDH was included as a loading control to indicate approximately equal loading of protein.

MM.1S cells = assay: MTS CellTiter 96 cell proliferation assay, MM.1S; details: for IC50: Homo sapiens, MM1.S, read-out: Estimated IC50; for IC50 / Estimated IC50: MTS cell proliferation assay; for decreasing cell proliferation: 0.1-10 μM, MTS assay, FIG. 1, compared with 8-amino adenosine
Method: Cell viability was assessed by MTS assay as follows.
The MTS CellTiter 96 assay is a colorimetric method to assess the number of viable cells based on the conversion of a tetrazolium compound (MTS) to a formazan product by the mitochondrial dehydrogenase enzyme of the cells. This assay is used to determine the number of viable cells remaining following a drug treatment in comparison to the number of viable cells that are only treated with the drug vehicle (control cells). The amount of formazan product in the control cells is normalized to 100% and the amount of formazan in the drug treated cells is expressed as a percentage of control. This is used to generate dose response curve and estimate the drug concentration that produced a 50% decrease in the number of viable cells.

[1] = system: acute leukemia cell lines (THP-1, K562, Kasumi-1, and U937); assay: Inhibition of viability of acute leukemia cell lines; details: THP-1, K562, Kasumi-1, U937; FIGS. 11-14
Method: Compounds 381, 383, 409 (as test compounds) and Compound 501 (as a negative control) were administered to a variety of acute leukemia cell lines (THP-1. K562, Kasumi-1, and U937) in order to test their ability to inhibit cell growth as compared to 8-amino adenosine (8NH2-Ado) and 8-chloro adenosine (8Cl-Ado) (as positive controls) as in the previous Examples.

Nc1ncnc2c1nc(Cl)n2[C@@H]1O[C@H](CO)[C@@H](O)[C@H]1O [Compound 8-Cl-Ado, 8-chloro adenosine]
induction of apoptosis (PARP cleavage, cleaved caspase 3) (U937 cell lines): Induction of apoptosis was observed

Nc1ncnc2c1nc(N)n2[C@@H]1O[C@H](CO)[C@@H](O)[C@H]1O [Compound 8-NH2-Ado, 8-amino adenosine]
induction of apoptosis (PARP cleavage, cleaved caspase 3) (U937 cell lines): Induction of apoptosis was observed

Cc1c(C)n(Cc2ccccc2)c2ncnc(Cl)c12 [NUCC-0000280]
IC50 (MM.1S cells): 5 µM

Clc1ncnc2c1c1c(n2Cc2ccccc2)CCCC1 [NUCC-0000308]
IC50 (MM.1S cells): 10 µM

FC(F)(F)c1cn(Cc2ccccc2)c2ncnc(Cl)c12 [NUCC-0000315]
IC50 (MM.1S cells): 3 µM

Fc1ccc(Cn2cc(C(F)(F)F)c3c(Cl)ncnc32)cc1 [NUCC-0000325]
IC50 (MM.1S cells): 5 µM

FC(F)(F)c1cn(Cc2cccnc2)c2ncnc(Cl)c12 [NUCC-0000326]
IC50 (MM.1S cells): 3 µM

FC(F)(F)c1cn(Cc2ccncc2)c2ncnc(Cl)c12 [NUCC-0000327]
IC50 (MM.1S cells): 5 µM

FC(F)(F)c1cn(CC2CCOCC2)c2ncnc(Cl)c12 [NUCC-0000329]
IC50 (MM.1S cells): 3 µM

CC(C)(C)OC(=O)N1CCC(Cn2cc(C(F)(F)F)c3c(Cl)ncnc32)CC1 [NUCC-0000357]
IC50 (MM.1S cells): 1.5 µM

FC(F)(F)c1cn(CCN2CCCC2)c2ncnc(Cl)c12 [NUCC-0000358]
IC50 (MM.1S cells): 3 µM

Cc1c(C)n(CC2CCCCC2)c2ncnc(Cl)c12 [NUCC-0000359]
IC50 (MM.1S cells): 10 µM

Cc1c(C)n(Cc2ccc(F)cc2)c2ncnc(Cl)c12 [NUCC-0000360]
IC50 (MM.1S cells): 7 µM

COCCn1c(C)c(C)c2c(Cl)ncnc21 [NUCC-0000361]
IC50 (MM.1S cells): 10 µM

Cc1c(C)n(Cc2ccccc2)c2ncnc(N)c12 [NUCC-0000362]
IC50 (MM.1S cells): 10 µM

Cc1c(C)n(Cc2ccco2)c2ncnc(Cl)c12 [NUCC-0000363]
IC50 (MM.1S cells): 10 µM

Cc1c(C)n(Cc2ccc(F)cc2)c2ncnc(N)c12 [NUCC-0000375]
IC50 (MM.1S cells): 10 µM

COc1cccc(Cn2c(C)c(C)c3c(Cl)ncnc32)c1 [NUCC-0000409]
IC50 (MM.1S cells): 1.5 µM | cell viability [1]: reduce cell viability significantly

Fc1ccc(Cn2c3c(c4c(Cl)ncnc42)CCCC3)cc1 [NUCC-0000412]
IC50 (MM.1S cells): 2.5 µM

Cc1c(C)n(CCN2CCOCC2)c2ncnc(Cl)c12 [NUCC-0000413]
IC50 (MM.1S cells): 5 µM

NC(=O)N1CCC(Cn2cc(C(F)(F)F)c3c(Cl)ncnc32)CC1 [NUCC-0000469]
IC50 (MM.1S cells): 10 µM

FC(F)(F)c1cn(CC2CCNCC2)c2ncncc12 [NUCC-0000470]
IC50 (MM.1S cells): 10 µM

Cc1ncnc2c1cc(C)n2C1O[C@H](CO)[C@@H](O)[C@H]1O (stereo partly shown) [NUCC-0000477]
IC50 (MM.1S cells): 8 µM

Cc1ncnc2c1c(C(F)(F)F)cn2CC1CCN(C(=O)OC(C)(C)C)CC1 [NUCC-0000482]
decreasing cell proliferation (MM.1S cells): not effective in decreasing cell proliferation | Estimated IC50 (MM.1S cells): In- active

Cc1ncnc2c1c(C(F)(F)F)cn2CC1CCNCC1 [NUCC-0000501]
decreasing cell proliferation (MM.1S cells): not effective in decreasing cell proliferation | Estimated IC50 (MM.1S cells): In- active

Nc1nc(Cl)c2c(C(F)(F)F)cn(CC3CCNCC3)c2n1 [NUCC-0000570]
IC50 (MM.1S cells): 3 µM

CC(C)(C)OC(=O)N1CCC(Cn2ccc3c(Cl)nc(Cl)nc32)CC1 [NUCC-0000571]
IC50 (MM.1S cells): 5 µM

Clc1nc(Cl)c2ccn(CC3CCNCC3)c2n1 [NUCC-0000575]
IC50 (MM.1S cells): 3 µM

CS(=O)(=O)N1CCC(Cn2cc(C(F)(F)F)c3c(Cl)nc(N)nc32)CC1 [NUCC-0000576]
IC50 (MM.1S cells): 3 µM

CS(=O)(=O)N1CCC(Cn2ccc3c(Cl)nc(Cl)nc32)CC1 [NUCC-0000577]
IC50 (MM.1S cells): 5 µM

CS(=O)(=O)N1CCC(Cn2ccc3c(Cl)ncnc32)CC1 [NUCC-0000578]
IC50 (MM.1S cells): 5 µM

O=C(N1CCC(Cn2cc(C(F)(F)F)c3c(Cl)ncnc32)CC1)C(F)(F)F [NUCC-0000593]
IC50 (MM.1S cells): 5 µM

CC(=O)N1CCC(Cn2ccc3c(Cl)nc(Cl)nc32)CC1 [NUCC-0000595]
IC50 (MM.1S cells): 3 µM

CS(=O)(=O)N1CCC(Cn2cc(C(F)(F)F)c3c(Br)ncnc32)CC1 [NUCC-0000598]
IC50 (MM.1S cells): 2 µM

OCCOCn1cc(C(F)(F)F)c2c(Cl)ncnc21 [NUCC-0050715]
IC50 (MM.1S cells): 5 µM

Cc1cn(CC2CCN(C(=O)OC(C)(C)C)CC2)c2ncnc(Cl)c12 [NUCC-0054036]
IC50 (MM.1S cells): 2 µM

COc1cccc(Cn2cc(C(F)(F)F)c3c(Cl)ncnc32)c1 [NUCC-0054037]
IC50 (MM.1S cells): 2 µM

COc1ccc(Cn2cc(C(F)(F)F)c3c(Cl)ncnc32)cc1 [NUCC-0054038]
IC50 (MM.1S cells): 2 µM

Cc1cn(CC2CCNCC2)c2ncnc(Cl)c12 [NUCC-0054039]
IC50 (MM.1S cells): 1 µM

Cc1cn(CC2CCN(S(C)(=O)=O)CC2)c2ncnc(Cl)c12 [NUCC-0054040]
IC50 (MM.1S cells): 3 µM

FC(F)(F)c1c[nH]c2ncnc(Cl)c12 [NUCC-0054043]
IC50 (MM.1S cells): 7 µM

FC(F)(F)c1cc2c(Cl)ncnc2n1CC1CCNCC1 [NUCC-0054150]
IC50 (MM.1S cells): > 10 µM

CS(=O)(=O)N1CCC(Cn2c(C(F)(F)F)cc3c(Cl)ncnc32)CC1 [NUCC-0054151]
IC50 (MM.1S cells): > 10 µM
